From patent US6924304B2, “Cell proliferation inhibitors” (Abbott Laboratories, priority 1999, dated 2005)
Counter-ions that a name gives are not always drawn.

Key:
[1] = test system: human lung large cell carcinoma, MDR negative (NCI-H460) cells; experiment: 48-hour cellular proliferation assay (sulforhodamine staining), NCI-H460 cells; assay type: cell-based; conditions: 10^−4 M compound; for inhibition at 100 µM: Homo sapiens, read-out: NCI-460 % inhibition at 10^−4 M
Protocol: (§1) Compounds of this invention were tested in a 48-hour cellular proliferation assay which uses human colon adenocarcinoma, MDR positive (HCT-15) cells, and human lung large cell carcinoma, MDR negative (NCI-H460) cells, in the 96-well microtitre format described in Skehan P., et al. New Colorimetric Cytotoxicity Assay for Anticancer Drug Screening. 1990, J. Natl. Cancer Inst. 82:1107-1112, hereby incorporated by reference. Briefly, the wells of a microtitre plate were charged sequentially with cultured cells and compounds of the invention (1.0×10^−4 to 1.0×10^−11 M in 10% DMSO prepared by dissolving compounds of the invention in DMSO and adding 11 μL of the DMSO solution to 100 μL of culture medium for a final DMSO concentration of 10%). Two of the following controls were also present in each microtitre plate: a solvent (DMSO) control without drug that yielded a 0% inhibition level and a trichloroacetic acid-treated well that yielded a 100% inhibition level. The cells were grown in culture (37° C., 5% CO2 atmosphere) for 48 hours then fixed by the addition of trichloroacetic acid. The wells were stained with sulforhodamine, washed with 1% acetic acid, and treated with 0.01 M tris buffer (100 μL) to solubilize the adherent dye. The absorbance of the dye solution was measured with a Molecular Devices SpectraMax340 plate reader. The percent inhibition values were obtained by calculating the proportional response of the experimental values to the absorbance values of the controls.

[2] = test system: human colon adenocarcinoma, MDR positive (HCT-15) cells; experiment: 48-hour cellular proliferation assay (sulforhodamine staining), HCT-15 cells; assay type: cell-based; conditions: 10^−4 M compound, HCT-15 cells (MDR positive); for inhibition at 100 µM: Homo sapiens
Protocol: as §1

| Compound | inhibition at 100 µM [1] [%] | inhibition at 100 µM [2] [%] | NCI-460 % inhibition at 10^−4 M [1] [%] | HCT-15 % inhibition at 10^−4 M [2] [%] |
| --- | --- | --- | --- | --- |
| COc1cc(S(=O)(=O)Nc2ccc3c(c2)cc(C)n3C)cc(OC)c1OC [Example 32, N-(1,2-dimethyl-1H-indol-5-yl)-3,4,5-trimethoxybenzenesulfonamide] | 99.8 | 99.8 | – | – |
| COc1cc(S(=O)(=O)Nc2ccc(OC(F)(F)F)cc2)cc(OC)c1OC [Example 26, 3,4,5-trimethoxy-N-(4-(trifluoromethoxy)phenyl)benzenesulfonamide] | 46.7 | 70.9 | – | – |
| COc1cc(S(=O)(=O)Nc2ccc3[nH]cc(Cl)c3c2)cc(OC)c1OC [Example 33, N-(3-chloro-1H-indol-5-yl)-3,4,5-trimethoxybenzenesulfonamide] | 2.8 | 92 | – | – |
| COc1cc(S(=O)(=O)Nc2ccc3ncn(C)c3c2)cc(OC)c1OC [Example 35, 3,4,5-trimethoxy-N-(1-methyl-1H-benzimidazol-6-yl)benzenesulfonamide] | 34.5 | 65.2 | – | – |
| COc1ccc(S(=O)(=O)Cc2cc(OC)c(OC)c(OC)c2)cc1N [Example 96, 2-methoxy-5-((3,4,5-trimethoxybenzyl)sulfonyl)aniline] | 99.9 | 99.8 | – | – |
| COc1cc(S(=O)(=O)Oc2ccc3[nH]ccc3c2)cc(OC)c1OC [Example 42, 1H-indol-5-yl 3,4,5-trimethoxybenzenesulfonate] | 100 | 100 | – | – |
| COc1cc(S(=O)(=O)N(CCN(C)C)c2ccc3c(ccn3C)c2)cc(OC)c1OC [Example 38, 3,4,5-trimethoxy-N-(2-(dimethylamino)ethyl)-N-(1-methyl-1H-indol-5-yl)benzenesulfonamide] | 81 | 87.5 | – | – |
| COc1cc(S(=O)(=O)Nc2cccc3c2ccn3C)cc(OC)c1OC [Example 29, 3,4,5-trimethoxy-N-(1-methyl-1H-indol-4-yl)benzenesulfonamide] | 90.8 | 95.1 | – | – |
| COc1cc(NS(=O)(=O)c2ccc(OC(F)(F)F)cc2)cc(OC)c1OC [Example 3, 4-trifluoromethoxy-N-(3,4,5-trimethoxyphenyl)benzenesulfonamide] | 100 | 94.4 | – | – |
| COc1cc(S(=O)(=O)Nc2ccc3c(ccn3C)c2)cc(OC)c1OC [Example 23, N-(1-methyl-1H-indol-5-yl)-3,4,5-trimethoxybenzenesulfonamide] | 100 | 100 | – | – |
| COc1cc(S(=O)(=O)Oc2ccc3[nH]ccc3c2)cc(OC)c1OC [Example 39, 1H-indol-5-ol, (3,4,5-trimethoxybenzenesulfonate)ester] | – | – | 100.0 | 100.0 |
| COc1ccc(S(=O)(=O)Nc2cc(OC)c(OC)c(OC)c2)cc1N [Example 10, 3-amino-4-methoxy-N-(3,4,5-trimethoxyphenyl)benzenesulfonamide hydrochloride] | 99.6 | 99.8 | – | – |
| COc1cc(S(=O)(=O)Nc2ccc3[nH]ccc3c2)cc(OC)c1OC [Example 31, N-(1H-indol-5-yl)-3,4,5-trimethoxybenzenesulfonamide] | 95.1 | 98.6 | – | – |
| COc1ccc(S(=O)(=O)Nc2cc(OC)c(OC)c(OC)c2)cc1[N+](=O)[O-] [Example 9, 4-methoxy-3-nitro-N-(3,4,5-trimethoxyphenyl)benzenesulfonamide] | 47.4 | 77.2 | – | – |
| COc1cc(S(=O)(=O)Nc2ccc3c(c2)ncn3C)cc(OC)c1OC [Example 36, 3,4,5-trimethoxy-N-(1-methyl-1H-benzimidazol-5-yl)benzenesulfonamide] | 99.5 | 99.3 | – | – |
| COc1ccc(C(C)(C)S(=O)(=O)c2cc(OC)c(OC)c(OC)c2)cc1 [Example 88, 1,2,3-trimethoxy-5-((1-(4-methoxyphenyl)-1-methylethyl)sulfonyl)benzene] | 58.4 | 85.5 | – | – |
| COc1cc(NS(=O)(=O)c2cc(OC)c(OC)c(OC)c2)ccc1F [Example 25, N-(4-fluoro-3-methoxyphenyl)-3,4,5-trimethoxybenzenesulfonamide] | 57.8 | 62.1 | – | – |
| COc1cc(NS(=O)(=O)c2c[nH]c3ccc(N)cc23)cc(OC)c1OC [Example 17, 5-amino-N-(3,4,5-trimethoxyphenyl)-1H-indole-3-sulfonamide] | < 9.1 | – | – | – |
| COc1cc(S(=O)(=O)Nc2ccc3ccn(C)c3c2)cc(OC)c1OC [Example 30, 3,4,5-trimethoxy-N-(1-methyl-1H-indol-6-yl)benzenesulfonamide] | 83.8 | 94.9 | – | – |

| Compound | inhibition at 100 µM [1] [%] | inhibition at 100 µM [2] [%] | NCI-460 % inhibition at 10^−4 M [1] [%] | HCT-15 % inhibition at 10^−4 M [2] [%] |
| --- | --- | --- | --- | --- |
| COc1ccc(OS(=O)(=O)c2cc(OC)c(OC)c(OC)c2)cc1 [Example 47, 4-methoxyphenyl 3,4,5-trimethoxybenzenesulfonate] | 99.9 | 100 | – | – |
| COc1ccc(C[S+]([O-])c2cc(OC)c(OC)c(OC)c2)cc1N (stereo not drawn) [Example 90, 2-methoxy-5-(((3,4,5-trimethoxyphenyl)sulfinyl)methyl)aniline] | 99.8 | 99.5 | – | – |
| COc1cc(NS(=O)(=O)c2ccc(NC(=O)CCl)cc2)cc(OC)c1OC [Example 7, 4-((2-chloroacetyl)amino)-N-(3,4,5-trimethoxyphenyl)benzenesulfonamide] | 89.2 | 96.7 | – | – |
| COc1cc(OS(=O)(=O)c2ccc3c(c2)CCN3C)cc(OC)c1OC [Example 46, 3,4,5-trimethoxyphenyl 1-methyl-5-indolinesulfonate] | 99.5 | 99.6 | – | – |
| COc1ccc(S(=O)(=O)Cc2cc(OC)c(OC)c(OC)c2)cc1 [Example 94, 1,2,3-trimethoxy-5-(((4-methoxyphenyl)sulfonyl)methyl)benzene] | 90.1 | 97.7 | – | – |
| COc1cc(NS(=O)(=O)c2ccc(N)cc2)cc(OC)c1OC [Example 6, 4-amino-N-(3,4,5-trimethoxyphenyl)benzenesulfonamide] | > 95 | 54.8 | – | – |
| COc1ccc(CS(=O)(=O)c2cc(OC)c(OC)c(OC)c2)cc1N [Example 91, 2-methoxy-5-(((3,4,5-trimethoxyphenyl)sulfonyl)methyl)aniline] | 99.8 | 95 | – | – |
| COc1cc(S(=O)(=O)Oc2ccc(C)cc2)cc(OC)c1OC [Example 45, 4-methylphenyl 3,4,5-trimethoxybenzenesulfonate] | 99.4 | 99.9 | – | – |
| COc1cc(NS(=O)(=O)c2ccc([N+](=O)[O-])cc2)cc(OC)c1OC [Example 5, 4-nitro-N-(3,4,5-trimethoxyphenyl)benzenesulfonamide] | 99.9 | 68.5 | – | – |
| COc1cc(OS(=O)(=O)c2ccc(N(C)C)cc2)cc(OC)c1OC [Example 44, (3,4,5-trimethoxyphenyl)-4-(dimethylamino)benzenesulfonate] | 99.9 | 100 | – | – |
| COc1cc(S(=O)(=O)Nc2ccc(N(C)C)cc2)cc(OC)c1OC [Example 24, N-(4-(dimethylamino)phenyl)-3,4,5-trimethoxybenzenesulfonamide] | 92 | 95.8 | – | – |
| COc1cc(NS(=O)(=O)c2ccccc2[N+](=O)[O-])cc(OC)c1OC [Example 8, 2-nitro-N-(3,4,5-trimethoxyphenyl)benzenesulfonamide] | 50 | 53.8 | – | – |
| COc1ccc(NS(=O)(=O)c2cc(OC)c(OC)c(OC)c2)cc1 [Example 21, 3,4,5-trimethoxy-N-(4-methoxyphenyl)benenesulfonamide] | – | – | 96.0 | 97.8 |
| COc1ccc(SCc2cc(OC)c(OC)c(OC)c2)cc1 [Example 93, 1,2,3-trimethoxy-5-(((4-methoxyphenyl)sulfanyl)methyl)benzene] | 98.6 | 99.9 | – | – |
| COc1cc(NS(=O)(=O)c2ccc3c(ccn3C)c2)cc(OC)c1OC [Example 19, 1-methyl-N-(3,4,5-trimethoxyphenyl)-1H-indole-5-sulfonamide] | 100 | – | – | – |
| COc1cc(S(=O)(=O)Nc2ccc3[nH]ncc3c2)cc(OC)c1OC [Example 34, N-(1H-indazol-5-yl)-3,4,5-trimethoxybenzenesulfonamide] | 18.5 | 47.6 | – | – |
| COc1ccc(S(=O)(=O)Oc2cc(OC)c(OC)c(OC)c2)cc1N [Example 43, (3,4,5-trimethoxyphenyl) 3-amino-4-methoxybenzenesulfonate] | 100 | 100 | – | – |
| COc1ccc(CSc2cc(OC)c(OC)c(OC)c2)cc1N [Example 89, 2-methoxy-5-(((3,4,5-trimethoxyphenyl)sulfanyl)methyl)aniline] | 99.9 | 99.9 | – | – |
